Assay results published in ChEMBL document CHEMBL4376834, “Discovery of 4H-Chromen-4-one Derivatives as a New Class of Selective Rho Kinase (ROCK) Inhibitors, which Showed Potent Activity in ex Vivo Diabetic Retinopathy Models” (J Med Chem, 2019).

What was measured:
[1] = Intrinsic clearance in human liver microsomes measured upto 45 mins in presence of NADPH by LC-MS analysis; type: ADME, Microsome; details: read-out: CLH
[2] = molecular target: NUAK family SNF1-like kinase 1 (Homo sapiens, UniProt O60285); assay: Inhibition of human recombinant ARK5 (2 to end residues) using KKKVSRSGLYRSP as substrate incubated for 40 mins in presence of [gamma-33ATP] by radiometric scintillation counting analysis
NUAK family SNF1-like kinase 1, sequence (O60285 whole entry, the tested form may be a part): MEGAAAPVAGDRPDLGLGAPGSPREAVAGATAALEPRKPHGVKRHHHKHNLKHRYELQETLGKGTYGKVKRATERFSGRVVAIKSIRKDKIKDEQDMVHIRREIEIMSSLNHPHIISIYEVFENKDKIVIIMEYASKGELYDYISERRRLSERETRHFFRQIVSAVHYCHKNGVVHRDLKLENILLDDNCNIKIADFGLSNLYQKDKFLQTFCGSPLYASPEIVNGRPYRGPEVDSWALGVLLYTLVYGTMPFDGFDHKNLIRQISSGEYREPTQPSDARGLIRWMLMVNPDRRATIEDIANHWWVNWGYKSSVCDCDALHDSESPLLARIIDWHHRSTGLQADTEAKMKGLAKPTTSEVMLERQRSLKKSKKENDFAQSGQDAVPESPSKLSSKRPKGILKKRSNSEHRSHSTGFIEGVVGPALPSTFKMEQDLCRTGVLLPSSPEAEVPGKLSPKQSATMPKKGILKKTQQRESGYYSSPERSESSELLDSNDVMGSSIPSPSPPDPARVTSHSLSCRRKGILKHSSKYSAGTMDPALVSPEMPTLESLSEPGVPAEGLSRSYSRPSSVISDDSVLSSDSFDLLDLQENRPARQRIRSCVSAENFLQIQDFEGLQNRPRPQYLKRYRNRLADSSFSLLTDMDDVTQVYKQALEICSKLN

[3] = molecular target: Mitogen-activated protein kinase kinase kinase 5 (Homo sapiens, UniProt Q99683); assay: Inhibition of human recombinant ASK1 (649 to 946 residues) using myelin as substrate incubated for 40 mins in presence of [gamma-33ATP] by radiometric scintillation counting analysis
Mitogen-activated protein kinase kinase kinase 5, sequence (Q99683 whole entry, the tested form may be a part): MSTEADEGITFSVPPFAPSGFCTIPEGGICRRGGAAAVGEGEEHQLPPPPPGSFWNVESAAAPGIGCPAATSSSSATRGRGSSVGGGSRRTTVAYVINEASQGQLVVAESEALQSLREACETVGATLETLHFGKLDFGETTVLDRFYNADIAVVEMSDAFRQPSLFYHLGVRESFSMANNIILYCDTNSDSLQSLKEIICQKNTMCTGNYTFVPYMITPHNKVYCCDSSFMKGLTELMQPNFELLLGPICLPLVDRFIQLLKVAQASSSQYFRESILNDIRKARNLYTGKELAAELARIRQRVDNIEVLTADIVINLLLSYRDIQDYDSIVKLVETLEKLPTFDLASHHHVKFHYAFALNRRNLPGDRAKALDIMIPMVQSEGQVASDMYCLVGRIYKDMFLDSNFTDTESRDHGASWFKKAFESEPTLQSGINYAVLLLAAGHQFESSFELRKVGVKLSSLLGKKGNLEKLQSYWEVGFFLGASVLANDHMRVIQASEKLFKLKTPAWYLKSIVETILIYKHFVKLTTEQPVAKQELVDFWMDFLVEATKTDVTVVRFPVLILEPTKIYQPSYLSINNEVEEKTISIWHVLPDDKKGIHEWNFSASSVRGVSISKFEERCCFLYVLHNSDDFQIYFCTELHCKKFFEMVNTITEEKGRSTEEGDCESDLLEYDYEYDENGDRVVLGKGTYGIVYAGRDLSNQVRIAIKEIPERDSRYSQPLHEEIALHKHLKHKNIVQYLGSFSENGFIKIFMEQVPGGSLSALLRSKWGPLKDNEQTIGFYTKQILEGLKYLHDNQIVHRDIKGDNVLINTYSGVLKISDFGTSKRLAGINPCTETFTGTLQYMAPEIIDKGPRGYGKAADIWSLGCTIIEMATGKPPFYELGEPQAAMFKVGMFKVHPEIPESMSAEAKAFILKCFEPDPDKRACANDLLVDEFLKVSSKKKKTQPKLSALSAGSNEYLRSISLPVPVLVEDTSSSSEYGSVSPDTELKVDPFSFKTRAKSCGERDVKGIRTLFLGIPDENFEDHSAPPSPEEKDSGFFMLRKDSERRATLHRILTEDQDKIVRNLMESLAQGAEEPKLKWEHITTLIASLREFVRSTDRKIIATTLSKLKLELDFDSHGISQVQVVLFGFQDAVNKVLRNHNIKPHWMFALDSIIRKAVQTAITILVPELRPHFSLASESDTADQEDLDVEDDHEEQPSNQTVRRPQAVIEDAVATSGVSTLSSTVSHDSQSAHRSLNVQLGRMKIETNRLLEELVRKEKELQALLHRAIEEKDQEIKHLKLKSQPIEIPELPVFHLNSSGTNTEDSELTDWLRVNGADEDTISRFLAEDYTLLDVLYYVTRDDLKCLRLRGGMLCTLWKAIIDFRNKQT

[4] = molecular target: Calcium/calmodulin-dependent protein kinase type II subunit beta (Homo sapiens, UniProt Q13554); assay: Inhibition of recombinant human CaMK2beta (1 to 315 residues) using calmodulin a substrate incubated for 40 mins in presence of [gamma-33ATP] by radiometric scintillation counting analysis
[5] = molecular target: CDK9/cyclin T1 (Homo sapiens, UniProt P50750); assay: Inhibition of recombinant full length human CDK9/cyclinT1 using KTFCGTPEYLAPE as substrate incubated for 40 mins in presence of [gamma-33ATP] by radiometric scintillation counting analysis; type: protein-complex assay
[6] = molecular target: Casein kinase I isoform gamma-3 (Homo sapiens, UniProt Q9Y6M4, E302D/K91E/R174G); assay: Inhibition of recombinant human CK1gamma3 K91E/R174G/E302D triple mutant (1 to 330 residues) using KRRRALS(p)VAS as substrate incubated for 40 mins in presence of [gamma-33ATP] by radiometric scintillation counting analysis
Casein kinase I isoform gamma-3, sequence (Q9Y6M4 whole entry K91E, the tested form may be a part, canonical isoform): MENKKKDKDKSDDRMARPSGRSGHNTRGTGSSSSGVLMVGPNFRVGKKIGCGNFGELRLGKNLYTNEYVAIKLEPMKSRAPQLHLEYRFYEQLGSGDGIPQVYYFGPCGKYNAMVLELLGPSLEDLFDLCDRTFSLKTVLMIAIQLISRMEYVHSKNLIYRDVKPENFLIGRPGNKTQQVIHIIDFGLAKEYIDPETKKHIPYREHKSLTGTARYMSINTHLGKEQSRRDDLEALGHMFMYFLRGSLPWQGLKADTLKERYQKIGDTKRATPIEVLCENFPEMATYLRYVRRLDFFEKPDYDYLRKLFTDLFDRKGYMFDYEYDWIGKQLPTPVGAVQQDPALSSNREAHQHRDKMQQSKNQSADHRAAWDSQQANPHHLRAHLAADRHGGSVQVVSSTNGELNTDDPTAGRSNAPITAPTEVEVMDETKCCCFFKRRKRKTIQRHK

[7] = molecular target: Mast/stem cell growth factor receptor Kit (Homo sapiens, UniProt P10721); assay: Inhibition of recombinant human C-Kit (544 to end residues) using poly (Glu,Tyr) 4:1 as substrate in presence of [gamma-33ATP] by radiometric scintillation counting analysis
[8] = molecular target: Serine/threonine-protein kinase DCLK3 (Homo sapiens, UniProt Q9C098); assay: Inhibition of recombinant human DCAMKL3 (345 to end residues) using KKLNRTLSFAEPG as substrate after 40 mins in presence of [gamma-33ATP] by radiometric scintillation counting analysis
Serine/threonine-protein kinase DCLK3, sequence (Q9C098 whole entry): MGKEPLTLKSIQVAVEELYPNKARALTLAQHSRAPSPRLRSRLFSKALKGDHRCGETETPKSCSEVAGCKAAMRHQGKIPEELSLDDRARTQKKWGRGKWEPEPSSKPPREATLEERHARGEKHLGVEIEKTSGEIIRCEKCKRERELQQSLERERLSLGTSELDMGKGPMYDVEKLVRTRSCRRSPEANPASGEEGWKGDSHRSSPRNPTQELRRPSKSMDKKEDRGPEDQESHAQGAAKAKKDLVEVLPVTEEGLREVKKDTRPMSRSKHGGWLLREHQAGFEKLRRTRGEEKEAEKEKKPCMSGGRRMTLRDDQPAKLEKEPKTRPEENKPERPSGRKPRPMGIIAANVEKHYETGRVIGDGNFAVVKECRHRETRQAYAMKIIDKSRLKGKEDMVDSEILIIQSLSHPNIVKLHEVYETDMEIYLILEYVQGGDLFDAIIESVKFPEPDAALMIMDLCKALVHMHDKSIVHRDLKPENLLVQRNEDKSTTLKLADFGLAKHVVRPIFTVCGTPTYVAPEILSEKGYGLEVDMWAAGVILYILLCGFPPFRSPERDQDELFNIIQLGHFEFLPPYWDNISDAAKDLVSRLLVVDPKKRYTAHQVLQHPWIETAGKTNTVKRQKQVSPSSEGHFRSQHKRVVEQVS

[9] = Inhibition of recombinant human DDR1 V833L mutant (492 to end residues) using KKKSPGEYVNIEF as substrate after 40 mins in presence of [gamma-33ATP] by radiometric scintillation counting analysis
[10] = molecular target: Dual specificity tyrosine-phosphorylation-regulated kinase 3 (Homo sapiens, UniProt O43781); assay: Inhibition of recombinant full length human DYRK3 using RRRFRPASPLRGPP as substrate after 40 mins in presence of [gamma-33ATP] by radiometric scintillation counting analysis
[11] = molecular target: 3-phosphoinositide-dependent protein kinase 1 (Homo sapiens, UniProt O15530); assay: Inhibition of recombinant human PDK1 (52 to end residues) using KTFCGTPEYLAPE as substrate incubated for 40 mins in presence of [gamma33P]ATP by radiometric scintillation counting analysis
[12] = molecular target: PAS domain-containing serine/threonine-protein kinase (Homo sapiens, UniProt Q96RG2); assay: Inhibition of recombinant human PASK (995 to end residues) using KKLNRTLSFAEPG as substrate measured after 40 mins in presence of [gamma33P]ATP by radiometric scintillation counting analysis
[13] = molecular target: Beta-adrenergic receptor kinase 1 (Homo sapiens, UniProt P25098); assay: Inhibition of recombinant full length human GRK2 using casein as substrate after 40 mins in presence of [gamma-33ATP] by radiometric scintillation counting analysis
[14] = molecular target: G protein-coupled receptor kinase 5 (Homo sapiens, UniProt P34947); assay: Inhibition of recombinant full length human GRK5 using casein as substrate after 40 mins in presence of [gamma-33ATP] by radiometric scintillation counting analysis
G protein-coupled receptor kinase 5, sequence (P34947 whole entry, the tested form may be a part): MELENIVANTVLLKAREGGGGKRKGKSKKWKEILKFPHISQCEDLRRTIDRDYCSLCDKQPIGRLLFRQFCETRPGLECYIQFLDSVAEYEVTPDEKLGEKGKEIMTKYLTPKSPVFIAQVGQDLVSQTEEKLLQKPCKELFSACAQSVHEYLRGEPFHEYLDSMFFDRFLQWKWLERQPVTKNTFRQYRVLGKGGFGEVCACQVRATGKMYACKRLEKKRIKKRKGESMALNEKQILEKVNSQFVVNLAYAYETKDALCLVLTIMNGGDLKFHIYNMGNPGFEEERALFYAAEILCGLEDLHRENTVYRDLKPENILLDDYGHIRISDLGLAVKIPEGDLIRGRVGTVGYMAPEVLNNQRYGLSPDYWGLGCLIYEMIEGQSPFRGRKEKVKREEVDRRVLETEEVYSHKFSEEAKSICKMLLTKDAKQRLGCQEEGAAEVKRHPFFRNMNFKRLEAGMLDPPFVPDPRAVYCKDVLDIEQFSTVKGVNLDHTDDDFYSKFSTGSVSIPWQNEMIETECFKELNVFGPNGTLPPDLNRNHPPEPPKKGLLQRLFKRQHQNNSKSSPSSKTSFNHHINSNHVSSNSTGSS

[15] = molecular target: Mitogen-activated protein kinase kinase kinase kinase 1 (Homo sapiens, UniProt Q92918); assay: Inhibition of human recombinant HPK1 (1 to 346 residues) using myelin basic protein as substrate after 40 mins by [gamma-33ATP] radiometric assay
[16] = molecular target: Insulin receptor-related protein (Homo sapiens, UniProt P14616); assay: Inhibition of human recombinant IRR (943 to 1266 residues) using myelin basic protein as substrate after 40 mins by [gamma-33ATP] by radiometric scintillation counting analysis
[17] = Inhibition of recombinant full length human JNK2alpha2 S51N mutant using ATF2 as substrate after 40 mins by [gamma-33ATP] by radiometric scintillation counting analysis
[18] = molecular target: Maternal embryonic leucine zipper kinase (Homo sapiens, UniProt Q14680); assay: Inhibition of recombinant human MELK (1 to 340 residues) using KKLNRTLSFAEPG as substrate incubated for 40 mins in presence of [gamma-33ATP by radiometric scintillation counting analysis
Maternal embryonic leucine zipper kinase, sequence (Q14680 whole entry, the tested form may be a part): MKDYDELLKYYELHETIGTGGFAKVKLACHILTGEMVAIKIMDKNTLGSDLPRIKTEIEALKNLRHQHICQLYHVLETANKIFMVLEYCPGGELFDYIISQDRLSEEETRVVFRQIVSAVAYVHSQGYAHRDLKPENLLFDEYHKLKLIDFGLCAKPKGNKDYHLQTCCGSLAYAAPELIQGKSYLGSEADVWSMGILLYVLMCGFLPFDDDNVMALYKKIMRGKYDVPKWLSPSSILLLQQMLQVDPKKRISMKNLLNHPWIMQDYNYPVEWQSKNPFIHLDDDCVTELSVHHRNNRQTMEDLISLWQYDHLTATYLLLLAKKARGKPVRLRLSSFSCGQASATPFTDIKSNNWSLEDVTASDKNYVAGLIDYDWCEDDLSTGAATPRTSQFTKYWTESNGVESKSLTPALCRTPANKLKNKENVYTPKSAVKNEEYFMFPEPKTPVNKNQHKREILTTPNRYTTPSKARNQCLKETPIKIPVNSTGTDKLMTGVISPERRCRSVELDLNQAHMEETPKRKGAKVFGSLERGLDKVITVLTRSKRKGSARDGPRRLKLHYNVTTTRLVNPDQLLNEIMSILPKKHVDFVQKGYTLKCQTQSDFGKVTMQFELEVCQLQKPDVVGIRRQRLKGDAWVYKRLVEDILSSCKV

[19] = molecular target: Serine/threonine-protein kinase D3 (Homo sapiens, UniProt O94806); assay: Inhibition of recombinant full-length human PKD3 using KKLRRTLSVA as substrate incubated for 40 mins in presence of [gamma33P]ATP by radiometric scintillation counting analysis
[20] = molecular target: Ribosomal protein S6 kinase alpha-6 (Homo sapiens, UniProt Q9UK32); assay: Inhibition of recombinant full length human Rsk4 using LRRASLG as substrate incubated for 40 mins in presence of [gamma33P]ATP by radiometric scintillation counting analysis
[21] = molecular target: Mitogen-activated protein kinase 11 (Homo sapiens, UniProt Q15759); assay: Inhibition of recombinant human full length SAPK2b using myelin basic protein as substrate incubated for 40 mins in presence of [gamma33P]ATP by radiometric scintillation counting analysis
Mitogen-activated protein kinase 11, sequence (Q15759 whole entry): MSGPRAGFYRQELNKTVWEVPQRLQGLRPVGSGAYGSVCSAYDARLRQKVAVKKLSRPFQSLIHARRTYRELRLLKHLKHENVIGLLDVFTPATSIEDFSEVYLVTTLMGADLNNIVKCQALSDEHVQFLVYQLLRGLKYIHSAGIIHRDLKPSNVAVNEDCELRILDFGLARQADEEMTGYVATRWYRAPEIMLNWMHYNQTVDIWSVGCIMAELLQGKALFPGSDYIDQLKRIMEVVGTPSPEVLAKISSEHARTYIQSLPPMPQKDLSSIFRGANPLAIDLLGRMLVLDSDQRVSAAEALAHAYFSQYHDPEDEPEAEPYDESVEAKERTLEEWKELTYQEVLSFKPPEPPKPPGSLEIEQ

[22] = molecular target: Serine/threonine-protein kinase Sgk3 (Homo sapiens, UniProt Q96BR1); assay: Inhibition of recombinant human SGK3 (119 to end residues) using GRPRTSSFAEGKK as substrate incubated for 40 mins in presence of [gamma33P]ATP by radiometric scintillation counting analysis
[23] = molecular target: Serine/threonine-protein kinase SIK3 (Homo sapiens, UniProt Q9Y2K2); assay: Inhibition of recombinant human SIK3 (1 to 307 residues) using KKKVSRSGLYRSP as substrate incubated for 40 mins in presence of [gamma33P]ATP by radiometric scintillation counting analysis
[24] = molecular target: Proto-oncogene tyrosine-protein kinase Src (Homo sapiens, UniProt P12931, T341M); assay: Inhibition of recombinant full length human SRC T341M mutant using GGEEEEYFELVKK as substrate incubated for 40 mins in presence of [gamma33P]ATP by radiometric scintillation counting analysis
[25] = molecular target: Serine/threonine-protein kinase tousled-like 2 (Homo sapiens, UniProt Q86UE8); assay: Inhibition of recombinant human TLK2 (387 to end residues) using casein as substrate incubated for 40 mins in presence of [gamma33P]ATP by radiometric scintillation counting analysis
[26] = molecular target: Dual specificity protein kinase TTK (Homo sapiens, UniProt P33981, S389A); assay: Inhibition of recombinant full-length human TTK S389A mutant using MBP as substrate incubated for 40 mins in presence of [gamma33P]ATP by radiometric scintillation counting analysis
[27] = Inhibition of human PIP5K1

Work on `CN(C)c1ccc(C(=O)Nc2cccc(NC(=O)COc3ccc4c(=O)ccoc4c3)c2)cc1` yielded a CLint scaled [1] of 216 mL/min/kg, an IC50 [2] greater than 10 µM and an IC50 [3] greater than 10 µM. The IC50 [4] was greater than 10 µM, the IC50 [5] was greater than 10 µM and the IC50 [6] was greater than 10 µM. For the same compound, the IC50 [7] was greater than 10 µM, the IC50 [8] was greater than 10 µM and the IC50 [9] was greater than 10 µM. For the same compound, the IC50 [10] was greater than 10 µM, the IC50 [11] was greater than 10 µM and the IC50 [12] was greater than 10 µM. The IC50 [13] was greater than 10 µM, the IC50 [14] was greater than 10 µM and the IC50 [15] was greater than 10 µM. For the same compound, the IC50 [16] was greater than 10 µM, the IC50 [17] was greater than 10 µM and the IC50 [18] was greater than 10 µM. It also gave an IC50 [19] greater than 10 µM, an IC50 [20] greater than 10 µM and an IC50 [21] greater than 10 µM. It also gave an IC50 [22] greater than 10 µM, an IC50 [23] greater than 10 µM and an IC50 [24] greater than 10 µM. For the same compound, the IC50 [25] was greater than 10 µM, the IC50 [26] was greater than 10 µM and the IC50 [27] was greater than 10 µM.
